Ends that are not written are not given here.
Columns and labels:
[1] = test system: T cell line with MGAR APC; assay: Antigen Processing Independent Presentation System (APIPS) assay, fresh or fixed MGAR APC; assay type: cell-based, DR2 mice; details: DR2 T cell line, IFN-γ, 24 h
Protocol: FIG. 4: Identification of apitopes within HIP-9FL. DR2 mice were immunized with HIP-9FL-KKK and a T cell line was established. Ten days after immunization the LN and spleens were harvested and cultured with different concentrations of peptide (0.1-1-2.5 and 5 μg/ml); 2×10^6 cells/ml APCs+1×10^6 cells/ml CD4 T cells per well. At day 7 the cells were re-stimulated with the same concentrations of peptide. On day 21 an APIPS test was done using commercial APC (MGAR). After 24 h, antigen-induced T cell activation was measured by IFN-γ ELISA and shown as OD values. The graph represents the mean of duplicate measurements±SEM. LN, lymph nodes; APC, Antigen presenting cell; APIPS, Antigen Processing Independent Presentation System.
Antigen-specific clones or TCL were tested for their reactivity to the peptides, presented by fixed or not fixed (fresh) cells (VAVY or MGAR) (=APCs). 5×10^4 cells from the individual clones were cultured with 10 μg/ml peptide and 5×10^4 fixed or fresh APCs. In the case of TCL, 5×10^4 cells were cultured with 10 μg/ml and 25 μg/ml peptide and 2.5×10^4 fixed or fresh APCs. To fixate APCs, cells were incubated with 0.5% paraformaldehyde (Merck, Darmstadt, Germany) (pH7) for 5 min at room temperature (RT). The fixation reaction was stopped by adding 0.4M glycine (Sigma-Aldrich) and washing the cells in RPMI-10% FCS. Additionally, reactivity towards human SAg protein (QBiologicals, Eurofins Amatsigroup, Ghent, Belgium) was measured to identify cryptic epitopes. After 24 h or 48 h, antigen-induced IFN-γ or IL-2 production (respectively) was measured by ELISA (R&D Systems, Abingdon, UK).
DR3tg or DR2tg mice were immunised subcutaneously in the base of the tail with 50 μg peptide emulsified in CFA (peptide/CFA). Ten days after immunisation, draining lymph nodes (LN) and spleens were harvested. […] At day 7, TCL cells were counted and cultured with fresh APC, peptides and IL-2, all at the same concentrations as above. […]

[2] = test system: LN cells and splenocytes upon SAg or peptide restimulation; assay: Ex vivo tolerization experiment, DR2tg mice; assay type: in vivo; details: DR2 mice, IFN-γ
Protocol: FIG. 7: Ex vivo tolerisation protocol. Mice are injected subcutaneously in the flank with 0.1 μg/ml, 1 μg/ml and 10 μg/ml peptide on days −15, −13 and −11, followed by 3 injections of 100 μg/ml on days −8, −6 and −4 (escalating dose regime). On day 0, mice are immunized subcutaneously at the base of the tail with SAg/CFA or peptide/CFA. Mice are sacrificed 10 days after immunization to measure proliferation of LN cells and splenocytes upon SAg or peptide restimulation. LN, lymph nodes.
FIG. 11: Ex vivo tolerance induction by HIP-9K1-KKK apitope. DR2 mice are injected subcutaneously in the flank with 0.1 μg/ml, 1 μg/ml and 10 μg/ml HIP-9K1-KKK on days −15, −13 and −11, followed by 3 injections of 100 μg/ml on days −8, −6 and −4 (escalating dose regime). On day 0, mice are immunized subcutaneously at the base of the tail with HIP-9FL/CFA. Mice are sacrificed 10 days after immunization to measure proliferation of LN cells and splenocytes upon SAg or peptide restimulation. Data represent mean±SEM of the concentration values for the PBS-treated mice (black lines) and peptide-treated mice (color lines). IFN-γ production expressed as IFN-γ concentration (pg/ml). Two-way ANOVA was used to measure overall treatment effects on T cell activation and p-values are written in the graphs. Bonferonni post-hoc testing was used and significant differences are indicated in the graphs (* p<0.05; **** p<0.0001). LN, lymph nodes. (A) Tolerisation against SAg in LN. (B) Tolerisation against HIP-9FL and HIP-9K1-KKK in LN. (C) Tolerisation against SAg in spleen. (D) Tolerisation against HIP-9FL and HIP-9K1-KKK in spleen.
FIG. 13: Ex vivo tolerance induction by HIP-12G1-KKK apitope. DR2 mice are injected subcutaneously in the flank with 0.1 μg/ml, 1 μg/ml and 10 μg/ml HIP-12G1-KKK on days −15, −13 and −11, followed by 3 injections of 100 μg/ml on days −8, −6 and −4 (escalating dose regime). On day 0, mice are immunized subcutaneously at the base of the tail with HIP-12AK/CFA. Mice are sacrificed 10 days after immunization to measure proliferation of LN cells and splenocytes upon SAg or peptide restimulation. Data represent mean±SEM of the concentration values for the PBS-treated mice (black lines) and peptide-treated mice (color lines). IFN-γ production expressed as IFN-γ concentration (pg/ml). Two-way ANOVA was used to measure overall treatment effects on T cell activation and p-values are written in the graphs. Bonferonni post-hoc testing was used and significant differences are indicated in the graphs (** p<0.01; *** p<0.001: **** p<0.0001). LN, lymph nodes. (A) Tolerisation against HIP-12G1-KKK and HIP-12G1 in LN. (B) Tolerisation against HIP-12G1-KKK in spleen.
DR3tg or DR2tg mice were injected subcutaneously in the flank region with 0.1 μg, 1 μg and 10 μg of peptide on days −15, −13 and −11 respectively, followed by 3 injections of 100 μg peptide on days −8, −6 and −4 (dose escalation schedule). On day 0, the mice were immunised subcutaneously in the base of the tail with 50 μg antigen (parental peptide) emulsified in CFA (peptide/CFA). Ten days after immunisation, draining lymph nodes (LN) and spleens were harvested. LN cells and splenocytes were isolated and cultured in X-vivo 15 medium (supplemented with 2 mM L-glutamine, 50 U/mL penicillin and 50 U/mL streptomycin; Lonza) in 96-well flat bottom plates. To investigate antigen-induced cell proliferation, 0.5×10^6 cells/well were cultured (200 μl/well) for 72 hours with different antigen concentrations (0-25 μg/ml) or with 12.5 μg/ml purified protein derivative (PPD; priming control; Statens serum institut, Copenhagen, Denmark). After 72 hours, supernatant was harvested and stored at −80° C. until further analysis. IFN-γ concentrations in supernatants were assessed by cytokine ELISA (R&D Systems, Abingdon, UK) to measure cell activation.

[3] = test system: SAg-specific hybridoma cells / T cell line with VAVY APC; assay: Antigen Processing Independent Presentation System (APIPS) assay, fresh or fixed VAVY APC; assay type: cell-based, DR3 mice; details: DR3 hybridoma clone (IL-2, 48 h) or T cell line (IFN-γ, 24 h)
Protocol: (§1) FIG. 2: identification of apitopes within HIP-115. (A) DR3 mice were immunized with SAg and hybridomas were generated. 5×10^4 SAg-specific hybridoma cells were cultured with 5×10^4 fresh or fixed commercial APC (VAVY) cells. T cell proliferation was measured by IL-2 ELISA on supernatants collected after 48 h. The graph represents the mean of duplicate measurements±SEM. (B) DR3 mice were immunized with HIP-115 and a T cell line was established. Ten days after immunization the LN and spleens were harvested and cultured with different concentrations of peptide (0.1-1-2.5 and 5 μg/ml); 2×10^6 cells/ml APC+1×10^6 cells/ml CD4 T cells per well. At day 7 the cells were re-stimulated with the same concentrations of peptide. On day 14 an APIPS test was done using commercial APC (VAVY). After 24 h, antigen-induced T cell activation was measured by IFN-γ ELISA and shown as IFN-γ concentration (pg/ml). The graph represents the mean of duplicate measurements±SEM. LN, lymph nodes; APC, Antigen presenting cell; APIPS, Antigen Processing Independent Presentation System.
as §1, with “3:” for “2:”, “HIP-241125.” for “HIP-115.”, “HIP-241125+HIP-24DG” for “HIP-115”
(§2) FIG. 5: Identification of apitopes within HIP-17GN. DR3 mice were immunized with HIP-17GN and a T cell line was established. Ten days after immunization the LN and spleens were harvested and cultured with different concentrations of peptide (0.1-1-2.5 and 5 μg/ml); 2×10^6 cells/ml APC+1×10^6 cells/ml CD4 T cells per well. At day 7 the cells were re-stimulated with the same concentrations of peptide. On day 14 an APIPS test was done using commercial APC (VAVY). After 24 h, antigen-induced T cell activation was measured by IFN-γ ELISA and shown as OD values. The graph represents the mean of triplicate measurements±SEM. LN, lymph nodes; APC, Antigen presenting cell; APIPS, Antigen Processing Independent Presentation System.
as §2, with “6:” for “5:”, “HIP-12AK.” for “HIP-17GN.”, “HIP-12AK” for “HIP-17GN”, “IFN-γ concentration (pg/ml).” for “OD values.”, “duplicate” for “triplicate”
Antigen-specific clones or TCL were tested for their reactivity to the peptides, presented by fixed or not fixed (fresh) cells (VAVY or MGAR) (=APCs). 5×10^4 cells from the individual clones were cultured with 10 μg/ml peptide and 5×10^4 fixed or fresh APCs. […]

Row | Substance | behaves as apitope (response to peptide presented by fresh or fixed APC) [1] | tolerization against the peptide itself / parental peptide ([2]; LN) | tolerization against the peptide itself ([2]; spleen) | behaves as apitope (response to peptide presented by fresh or fixed APC) [3]
1 | KKKVKKIKAFVEQVANVVLYSSDYKKK-NH2 [HIP-9FL-KKK] | behave as apitopes |  |  | 
2 | KKKGILVSYQIKVKKKK-NH2 [HIP-12G1-KKK, KKKGILVSYQIKVKKKK] |  | tolerization induced | tolerization induced | behave as apitopes
3 | VKKIKAFVEQVANVVLYSSDY-NH2 [HIP-9FL] | behave as apitopes |  |  | 
